Results as given in patent US10155751B2, “Pyrazolyl-substituted heteroaryls and their use as medicaments” (Boehringer Ingelheim International GmbH, priority 2015, dated 2018).

System: SYK dependent basophil degranulation (CD63 surface expression on basophils in whole blood)
Test: CD63-assay (cellular assay for SYK-inhibition) in whole blood
Format: cell-based
Details: read-out: EC50 in CD63-assay
Protocol: In this assay, IgE raised against dinitrophenol (DNP) is incubated in whole blood where it binds to the FcεR1 on basophils. […] CD63 normally resides on the intracellular granule membrane within basophils, which upon degranulation, is then expressed on the surface where it can be detected by flow cytometry. Surface expression of CD63 correlates extremely well with the release of histamine from basophils. The CD63 assay has previously been validated as a clinical target engagement biomarker in the Fostamatinib SYK program (Braselmann et al, J. Pharm. Exp. Therap. 319:998-1008, 2006). Heparinized whole blood is mixed gently (vortex mixer) and […] per test aliquoted into a 96 well plate. Anti-DNP (1 mg/ml) is diluted 1:100 with PBS/0.1% HSA to 10 μg/ml (final concentration: 1 μg/mL). Pre-dilute DNP/BSA (5 mg/ml) to a concentration of 60 ng/ml with washing solution. Compounds: […] Reagents are provided from the Basotest® kit. Incubate 10 μl of 10 μg/ml anti DNP and 10 μl of compound with 100 μl whole blood in a 37° C. pre-warmed water bath. After 30 minutes, 20 μl of STIMULATION BUFFER is added to the whole blood samples and vortexed gently. Incubate the samples for 10 min at 37° C. in a water bath. 100 μl of DNP/BSA is added per test to the whole blood. Add 100 μl of the WASHING SOLUTION to a further test tube as a negative control. Add 100 μl of DNP/BSA (final 30 ng/ml) in the compound tubes. All tubes are mixed once more. The samples are incubated for 20 min at 37° C. in a water bath. Stop degranulation by incubating the samples on ice for 5 min. Add 20 μl of STAINING REAGENT to each tube. Vortex and incubate the tubes for 20 min in an ice bath, covered to prevent exposure to light. The whole blood samples are lysed and fixed with 2 ml of pre-warmed (room temperature) 1×LYSING SOLUTION. Vortex and incubate for 10 min at room temperature. Spin down cells (5 min, 250×g, 4° C.). Discard the supernatant. Add 3 ml of WASHING SOLUTION to the tubes. Centrifuge the tubes (5 min, 250×g, 4° C.). Aspirate the supernatant. Add 200 μl WASHING SOLUTION to the cell pellet, vortex. Incubate the tubes in a covered ice bath until analysis. Cells are analysed by flow cytometry using the blue-green excitation light (488 nm argon-ion laser). Acquire data by using fluorescence triggering in the FL2 channel (PE) to gate on basophilic granulocytes expressing high amounts of IgE. This live gating reduces the amount of data and saves memory capacity. Acquire at least 500 basophils per sample. For data evaluation and calculation, the measurement of the negative control (unstimulated blood) was set as 100% control and the measurement of the positive control (DNP/anti-DNP stimulated blood) was set as 0% control. Based on these values the % value for the measurement of each substance concentration was calculated, a concentration-effect curve fitted and an EC50 value calculated using GraphPad Prism version 6.01 for Windows. The EC50 value was calculated using a nonlinear fitting (log(inhibitor) vs. response—variable slope). Normally, the % control values calculated are between 0% and 100% values but may also occur outside these limits in individual cases based on variability or compound characteristics.

Going from `Cc1cnn2cc(-c3cnn(C(C)(C)C)c3)cc(O[C@H](C)[C@H]3CNC(=O)C3)c12` [example 6.09 on page 559 of WO15017610, reference compound] to `Cc1cc2c(O[C@H](C)[C@H]3CNC(=O)C3)cc(-c3cnn(C(C)(C)C)c3)cn2n1` [example 6.60 on page 587 of WO15017610, reference compound], the EC50 rises from < 150 nM to 483 nM.

`Cc1cnn2cc(-c3cnn(C(C)(C)C)c3)nc(O[C@H](C)[C@H]3CNC(=O)C3)c12` [example 5.20 on page 506 of WO15017610, reference compound] and `C[C@@H](Oc1nc(-c2cnn(C(C)(C)C)c2)cc2ncn(C)c12)[C@H]1CNC(=O)C1` [example 3A.02, on page 196 of WO15017610, reference compound] cannot be ordered by EC50: < 150 nM for the first, < 150 nM for the second.

In the case of `C[C@@H](Oc1cc(-c2cnn(C(C)(C)C)c2)cc2ncn(C)c12)[C@H]1CNC(=O)C1` [example 3B.22 on page 219 of WO15017610, reference compound], the EC50 is reported as < 150 nM.

Same assay, conditions: whole blood, DNP/anti-DNP stimulated basophils; read-out: CD63 assay EC50-value (chapter 5.2)

`C[C@@H](Oc1cc(-c2cnn(C3CC3)c2)cc2nn(C)c(F)c12)[C@H]1CNC(=O)C1` [Example 5, (R)-4-{(R)-1-[6-(1-Cycloprop-yl-1H-pyrazol-4-yl)-3-fluoro-2-methyl-2H-indazol-4-yloxy]-ethyl}-pyrrolidin-2-one] and `C[C@@H](Oc1cc(-c2cnn(C3CCC3)c2)cc2nn(C)c(F)c12)[C@H]1CNC(=O)C1` [Example 1, (R)-4-{(R)-1-[6-(1-Cyclobutyl-1H-pyrazol-4-yl)-3-fluoro-2-methyl-2H-indazol-4-yloxy]-ethyl}-pyrrolidin-2-one] are within 1.5-fold of each other in EC50: 52 nM for the first, 41 nM for the second.

`C[C@@H](Oc1cc(-c2cnn(C3CCC(F)(F)C3)c2)cc2nn(C)c(F)c12)[C@H]1CNC(=O)C1` (stereo partly shown) [Example 7] and `Cc1c2c(O[C@H](C)[C@H]3CNC(=O)C3)cc(-c3cnn(C4CCC(F)(F)C4)c3)cc2nn1C` (stereo partly drawn) [Example 22, (R)-4-((R)-1-{6-[1-(3,3-Difluoro-cyclopentyl)-1H-pyrazol-4-yl]-2,3-dimethyl-2H-indazol-4-yloxy}-ethyl)-pyrrolidin-2-one] are within 1.5-fold of each other in EC50: 53 nM for the first, 67 nM for the second.

Going from `Cc1c2c(O[C@H](C)[C@H]3CNC(=O)C3)cc(-c3cnn(C4CCC4)c3)cc2nn1C` [Example 21, (R)-4-{(R)-1-[6-(1-Cyclobutyl-1H-pyrazol-4-yl)-2,3-dimethyl-2H-indazol-4-yloxy]-ethyl}-pyrrolidin-2-one] to `Cc1c2c(O[C@H](C)[C@H]3CNC(=O)C3)cc(-c3cnn(C4CC4)c3)cc2nn1C` [Example 20, (R)-4-{(R)-1-[6-(1-Cyclopropyl-1H-pyrazol-4-yl)-2,3-dimethyl-2H-indazol-4-yloxy]-ethyl}-pyrrolidin-2-one], the EC50 rises from 76 nM to 134 nM (1.8-fold).

`Cc1c2c(O[C@H](C)[C@H]3CNC(=O)C3)cc(-c3cnn([C@H]4CO[C@@H]5CCCO[C@@H]54)c3)cc2nn1C` [Example 10, 4-(1-{6-[(R)-(3S,3aR,7aR)-1-(Hexahydro-furo[3,2-b]pyran-3-yl)-1H-pyrazol-4-yl]-2,3-dimethyl-2H-indazol-4-yloxy}-ethyl)-pyrrolidin-2-one] and `Cc1c2c(O[C@H](C)[C@H]3CNC(=O)C3)cc(-c3cnn([C@@H]4CCOC(C)(C)C4)c3)cc2nn1C` [Example 9, (R)-4-((R)-1-{6-[1-((R)-2,2-Dimethyl-tetrahydro-pyran-4-yl)-1H-pyrazol-4-yl]-2,3-dimethyl-2H-indazol-4-yloxy}-ethyl)-pyrrolidin-2-one] are within 1.5-fold of each other in EC50: 65 nM for the first, 52 nM for the second.

Compared with `Cc1c2c(O[C@H](C)[C@H]3CNC(=O)C3)cc(-c3cnn(C(C)(C)C)c3)cc2nn1C` [Example 13, (R)-4-{(R)-1-[6-(1-tert-Butyl-1H-pyrazol-4-yl)-2,3-dimethyl-2H-indazol-4-yloxy]-ethyl}-pyrrolidin-2-one], `Cc1c2c(O[C@H](C)[C@H]3CNC(=O)C3)cc(-c3cnn(C(C)(C)C#N)c3)cc2nn1C` [Example 17, 2-(4-{2,3-Dimethyl-4-[(R)-1-((R)-5-oxo-pyrrolidin-3-yl)-ethoxy]-2H-indazol-6-yl}-pyrazol-1-yl)-2-methyl-propionitrile] is 1.6-fold higher in EC50: 58 nM for the first, 92 nM for the second. The first is the more potent here.

`C[C@@H](Oc1cc(-c2cnn(C3CC(C)(C)OC3(C)C)c2)cc2nn(C)c(F)c12)[C@H]1CNC(=O)C1` (stereo partly drawn) [Example 14, (R)-4-((R)-1-{3-Fluoro-2-methyl-6-[1-(2,2,5,5-tetramethyl-tetrahydro-furan-3-yl)-1H-pyrazol-4-yl]-2H-indazol-4-yloxy}-ethyl)-pyrrolidin-2-one] and `Cc1c2c(O[C@H](C)[C@H]3CNC(=O)C3)cc(-c3cnn(C4CC(C)(C)OC4(C)C)c3)cc2nn1C` (stereo partly drawn) [Example 16, (R)-4-((R)-1-{2,3-Dimethyl-6-[1-(2,2,5,5-tetramethyl-tetrahydro-furan-3-yl)-1H-pyrazol-4-yl]2H-indazol-4-yloxy}-ethyl)-pyrrolidin-2-one] are within 1.5-fold of each other in EC50: 76 nM for the first, 82 nM for the second.

Compared with `Cc1cnn2cc(-c3cnn(C(C)(C)C)c3)cc(O[C@H](C)[C@H]3CNC(=O)C3)c12` [example 6.09 on page 559 of WO15017610, reference compound], `Cc1cc2c(O[C@H](C)[C@H]3CNC(=O)C3)cc(-c3cnn(C(C)(C)C)c3)cn2n1` [example 6.60 on page 587 of WO15017610, reference compound] is 24-fold higher in EC50: 20 nM for the first, 483 nM for the second. The first is the more potent here.

Compared with `Cc1c2c(O[C@H](C)[C@H]3CNC(=O)C3)cc(-c3cnn(C(C)C)c3)cc2nn1C` [Example 18, (R)-4-{(R)-1-[6-(1-Isopropyl-1H-pyrazol-4-yl)-2,3-dimethyl-2H-indazol-4-yloxy]-ethyl}-pyrrolidin-2-one], `CC(C)n1cc(-c2cc(O[C@H](C)[C@H]3CNC(=O)C3)c3c(F)n(C)nc3c2)cn1` [Example 2, (R)-4-{(R)-1-[3-Fluoro-6-(1-isopropyl-1H-pyrazol-4-yl)-2-methyl-2H-indazol-4-yloxy]-ethyl}-pyrrolidin-2-one] is 2.1-fold lower in EC50: 95 nM for the first, 45 nM for the second.

Going from `Cc1cnn2cc(-c3cnn(C(C)(C)C)c3)nc(O[C@H](C)[C@H]3CNC(=O)C3)c12` [example 5.20 on page 506 of WO15017610, reference compound] to `C[C@@H](Oc1nc(-c2cnn(C(C)(C)C)c2)cc2ncn(C)c12)[C@H]1CNC(=O)C1` [example 3A.02, on page 196 of WO15017610, reference compound], the EC50 falls from 77 nM to 42 nM (1.8-fold).

`Cc1c2c(O[C@H](C)[C@H]3CNC(=O)C3)cc(-c3cnn(CC4CC4)c3)cc2nn1C` [Example 8, (R)-4-{(R)-1-[6-(1-Cyclopropylmethyl-1H-pyrazol-4-yl)-2,3-dimethyl-2H-indazol-4-yloxy]-ethyl}-pyrrolidin-2-one] and `C[C@@H](Oc1cc(-c2cnn(CC3CC3)c2)cc2nn(C)c(F)c12)[C@H]1CNC(=O)C1` [Example 6, (R)-4-{(R)-1-[6-(1-Cycloprop-ylmethyl-1H-pyrazol-4-yl)-3-fluoro-2-methyl-2H-indazol-4-yloxy]-ethyl}-pyrrolidin-2-one] are within 1.5-fold of each other in EC50: 47 nM for the first, 42 nM for the second.

First: C[C@@H](Oc1cc(-c2cnn(C(C)(C)C)c2)cc2ncn(C)c12)[C@H]1CNC(=O)C1 [example 3B.22 on page 219 of WO15017610, reference compound]
Second: Cc1c2c(O[C@H](C)[C@H]3CNC(=O)C3)cc(-c3cnn(CC(C)C)c3)cc2nn1C [Example 19, (R)-4-{(R)-1-[6-(1-Isobutyl-1H-pyrazol-4-yl)-2,3-dimethyl-2H-indazol-4-yloxy]-ethyl}-pyrrolidin-2-one]
The EC50 of the first is 3.7-fold lower: 29 nM for the first, 107 nM for the second.

`Cc1c2c(O[C@H](C)[C@H]3CNC(=O)C3)nc(-c3c[nH]nc3C(C)(C)C)cc2nn1C` [Example 4, (R)-4-{(R)-1-[6-(3-tert-Butyl-1H-pyrazol-4-yl)-2,3-dimeth-yl-2H-pyrazolo[4,3-c]pyridin-4-yloxy]-ethyl}-pyrrolidin-2-one] and `Cc1c2c(O[C@H](C)[C@H]3CNC(=O)O3)nc(-c3cnn(C(C)(C)C)c3)cc2nn1C` [Example 3, (R)-5-{(R)-1-[6-(1-tert-Butyl-1H-pyrazol-4-yl)-2,3-dimethyl-2H-pyrazolo[4,3-c]pyridin-4-yloxy]-ethyl}-oxazolidin-2-one] are within 1.5-fold of each other in EC50: 64 nM for the first, 51 nM for the second.

`C[C@@H](Oc1cc(-c2cnn(CCC(F)(F)F)c2)cc2nn(C)c(F)c12)[C@H]1CNC(=O)C1` [Example 12, (R)-4-((R)-1-{3-Fluoro-2-methyl-6-[1-(3,3,3-trifluoro-propyl)-1H-pyrazol-4-yl]-2H-indazol-4-yloxy}-ethyl)-pyrrolidin-2-one] and `Cc1c2c(O[C@H](C)[C@H]3CNC(=O)C3)cc(-c3cnn(CCF)c3)cc2nn1C` [Example 11, (R)-4-((R)-1-{6-[1-(2-Fluoro-ethyl)-1H-pyrazol-4-yl]-2,3-dimethyl-2H-indazol-4-yloxy}-ethyl)-pyrrolidin-2-one] are within 1.5-fold of each other in EC50: 67 nM for the first, 65 nM for the second.
